Assay results taken from paper PMC7734798 (ACS Medicinal Chemistry Letters, 2020).

Legend:
[1] = Rat plasma stability assay (LC-DAD-MS/MS); format: in vitro ADME; settings: 1 h of incubation at 37 °C
Procedure: Our aim was to develop plasma-stable conjugates that would be hydrolyzed in the brain. Selective localized hydrolysis of conjugates 1 and 2 would permit a CNS-targeted profile and less side effects. Thus, plasma stability is an important pharmacokinetic prerequisite for 1 and 2. As reported by stability assays performed by LC-DAD-MS/MS analysis (Figure 3), conjugates 1 and 2 are stable for more than 85% after 1 h of incubation at 37 °C in rat plasma. […] The mean plasma remaining fraction of the two conjugates after 1 h of incubation was compared by means of t test and a statistically relevant difference (p < 0.01) was observed.
Velp (Usmate, Italy) RX3 vortex mixer and an Elma (Singen, Germany) Sonic T310 Trans ultrasonic […]
Chromatographic runs were obtained on an Agilent (Palo Alto, Ca, US) ZORBAX SB-C18 column (50 × 2.1 mm I.D., 3.5 µm particles), maintained at room temperature and equipped with a guard column. […] For compound stability and hydrolysis studies, multiple reaction monitoring (MRM) acquisition mode was set up for both compounds 1 and 2, by flow-injection analysis directly in the MS source, in order to optimize ionization parameters and to select two exclusive MRM m/z transitions for each analyte, exploited for quantitative purposes and for qualitative confirmation, respectively. […]

Oli-Neu cells = assay: Oli-Neu cell proliferation and differentiation assay: cell counting and measure of filaments; format: cell-based, mouse; settings: 5 μM, 48 h
Text: OPC proliferation and migration to the CNS injury site as well as their differentiation are critical steps toward remyelination in MS. HDAC activity plays a crucial role in OPC proliferation/differentiation; therefore, HDAC modulation is widely considered a promising therapeutic target for MS.[30] […] Therefore, we tested the effect of our compounds on OPC proliferation and differentiation, through cell counting, measure of filaments, and analysis of proliferation/differentiation markers (Figure 7).
Oli-Neu cells were grown in SATO medium (DMEM medium, 2 mM glutamine, 10 μg/ml insulin, 5.5 μg/ml transferrin, 38.72 nM sodium selenite, 100 µM putrescine, 520 nM L-thyroxine (T4), 500 nM triiodo-L-thyronine (T3), 200 nM progesterone, 25 μg/ml of gentamycin) supplemented with 1% heat-inactivated horse serum (HS) in a humidified, 5% CO2 incubator at 37°C. Cell culture medium and all chemicals were from Sigma-Aldrich, except for insulin-transferrin-sodium selenite 100X supplement (Life Technologies Corporation). Cells were plated on 96 well plates, previously coated with 10 μg/mL poly-L-lysine (Sigma-Aldrich; 10 μg/ml) at the density of 2.5 x 10 4/0.2 mL medium/well and treated with increasing concentrations of the compounds (0.5, 1, 5 and 10 μM). […]
Oli-Neu cells proliferation and differentiation assay
48 hours, for cell counting and measure of filaments, 5 random images for each condition were acquired with an Eclipse TS100 (Nikon) microscope using a 10X objective. Cells number and filament length were measured with Fiji ImageJ2 software. […]

Structure (SMILES) | percentage remaining upon incubation in rat plasma [1] | Oli-Neu cell number (Oli-Neu cells) | Oli-Neu filament length (Oli-Neu cells)
CC/C=C\C/C=C\C/C=C\CCCCCCCC(=O)NCCNC(=O)C(CCC)CCC [compound 1] | 89% | decrease cell number | parallel increase in filament length
CC/C=C\C/C=C\C/C=C\CCCCCCCC(=O)NCCOC(=O)C(CCC)CCC [compound 2] | 85% | decrease cell number | parallel increase in filament length
